Data reported in the supplement of paper PMC10307832.

Assays:
Experiment in all cases: relative viability (nuclei count vs DMSO), 5 days (fraction); higher = more cells survive
RAF265 + Alpelisib = compound: Cn1c(Nc2ccc(C(F)(F)F)cc2)nc2cc(Oc3ccnc(-c4ncc(C(F)(F)F)[nH]4)c3)ccc21 [RAF265] + Cc1nc(NC(=O)N2CCC[C@H]2C(N)=O)sc1-c1ccnc(C(C)(C)C(F)(F)F)c1 [Alpelisib] (partner 2 µM)
In short: (§1)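 After 5 days of treatment, lung cancer cells in 1536-well plates were fixed and stained in a single step (final 0.05% Triton X-100, 1% formaldehyde, 1 ug/ml Hoechst) and their nuclei counted on 4× images. Treatment had been applied by pin tool the day after seeding as one drug alone or as a fixed anchor-drug dose with five library-drug doses (not always all listed) in √10 steps. Relative viability is the nuclei count of treated wells divided by that of vehicle wells, and values are medians of duplicate plates.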

IPA-3 + Linsitinib = compound: C1=CC=C2C(=C1)C=CC(=C2SSC3=C(C=CC4=CC=CC=C43)O)O [IPA-3] + C[C@]1(O)C[C@@H](c2nc(-c3ccc4ccc(-c5ccccc5)nc4c3)c3c(N)nccn32)C1 [Linsitinib] (partner 1 µM)
In short: as §1

Doramapimod + Navitoclax = compound: Cc1ccc(-n2nc(C(C)(C)C)cc2NC(=O)Nc2ccc(OCCN3CCOCC3)c3ccccc23)cc1 [Doramapimod] + CC1(C)CCC(c2ccc(Cl)cc2)=C(CN2CCN(c3ccc(C(=O)NS(=O)(=O)c4ccc(N[C@H](CCN5CCOCC5)CSc5ccccc5)c(S(=O)(=O)C(F)(F)F)c4)cc3)CC2)C1 [Navitoclax] (partner 0.5 µM)
In short: as §1

RAF265 + Foretinib = compound: Cn1c(Nc2ccc(C(F)(F)F)cc2)nc2cc(Oc3ccnc(-c4ncc(C(F)(F)F)[nH]4)c3)ccc21 [RAF265] + COc1cc2c(Oc3ccc(NC(=O)C4(C(=O)Nc5ccc(F)cc5)CC4)cc3F)ccnc2cc1OCCCN1CCOCC1 [Foretinib] (partner 0.25 µM)
In short: as §1

Row | Cell Line | relative viability (RAF265 + Alpelisib; first compound 0.01 µM) | relative viability (RAF265 + Alpelisib; first compound 0.03162 µM) | relative viability (RAF265 + Alpelisib; first compound 0.1 µM) | relative viability (RAF265 + Alpelisib; first compound 0.3162 µM) | relative viability (RAF265 + Alpelisib; first compound 1 µM) | relative viability (IPA-3 + Linsitinib; first compound 0.2 µM) | relative viability (IPA-3 + Linsitinib; first compound 0.6325 µM) | relative viability (IPA-3 + Linsitinib; first compound 2 µM) | relative viability (IPA-3 + Linsitinib; first compound 6.325 µM) | relative viability (IPA-3 + Linsitinib; first compound 20 µM) | relative viability (Doramapimod + Navitoclax; first compound 0.02 µM) | relative viability (Doramapimod + Navitoclax; first compound 0.06325 µM) | relative viability (Doramapimod + Navitoclax; first compound 0.2 µM) | relative viability (Doramapimod + Navitoclax; first compound 0.6325 µM) | relative viability (Doramapimod + Navitoclax; first compound 2 µM) | relative viability (RAF265 + Foretinib; first compound 0.01 µM) | relative viability (RAF265 + Foretinib; first compound 0.03162 µM) | relative viability (RAF265 + Foretinib; first compound 0.1 µM) | relative viability (RAF265 + Foretinib; first compound 0.3162 µM) | relative viability (RAF265 + Foretinib; first compound 1 µM)
1 | NCI-H1944 | 0.896 | 0.841 | 0.646 | 0.496 | 0.442 | 1.2 | 1.12 | 1.23 | 1.48 | 1.3 | 1 | 1.11 | 1.05 | 1.17 | 1.08 | 0.939 | 0.913 | 0.906 | 0.762 | 0.461
2 | NCI-H727 | 0.662 | 0.644 | 0.594 | 0.366 | 0.308 | 0.265 | 0.186 | 0.271 | 0.34 | 0.226 | 0.467 | 0.337 | 0.501 | 0.481 | 0.382 | 0.879 | 0.895 | 0.98 | 0.744 | 0.454
3 | NCI-H1650 | – | – | – | – | – | – | – | – | – | – | 1.09 | 1.2 | 1.23 | 1.63 | 1.2 | 1.01 | 1.29 | 1.35 | 1.17 | 0.953
4 | HCC-827 | 0.984 | 1.02 | 1.01 | – | 0.735 | 0.916 | 0.943 | 0.935 | 0.917 | 0.925 | 1.01 | 0.959 | 0.984 | 1 | 0.829 | 0.986 | 0.971 | 1.06 | – | 0.729
5 | HCC-366 | 0.404 | 0.432 | 0.539 | 0.579 | 0.124 | 0.996 | 0.627 | 0.723 | 0.756 | 0.696 | 1.05 | 1 | 1.03 | 0.978 | 0.901 | 0.99 | 0.841 | 0.9 | 0.996 | 0.914
6 | HARA | 0.762 | 0.708 | 0.736 | 0.477 | 0.287 | 1.08 | 0.912 | 0.935 | 0.916 | 1.02 | 1.1 | 1.13 | 1.12 | 1.11 | 1.07 | 0.573 | 0.777 | 0.931 | 0.53 | 0.38
7 | NCI-H322M | 0.811 | 0.784 | 0.544 | 0.28 | 0.265 | 1.01 | 0.941 | 0.987 | 0.947 | 0.978 | 1.12 | 1.16 | 1.16 | 1.33 | 1.2 | 1.09 | 1.03 | 0.781 | 0.402 | 0.275
8 | LXF-289 | 1.06 | 0.965 | 1 | 0.79 | 0.75 | 1.09 | 0.961 | 0.951 | 1.02 | 1.11 | 0.954 | 1 | 0.939 | 0.903 | 0.942 | 0.999 | 0.986 | 0.938 | 0.875 | 0.709
9 | PC-3 [JPC-3] | 1 | 0.993 | 1.08 | 0.331 | 0.644 | 0.965 | 0.904 | 0.977 | 0.994 | 0.922 | 0.923 | 0.767 | 0.737 | 0.869 | 0.723 | 1.04 | 1.07 | 1.12 | – | 0.595
10 | CAL-12T | 1.26 | 1.04 | 0.944 | 0.575 | 0.354 | 0.93 | 0.715 | 0.914 | 0.79 | 0.935 | 1.14 | 1.14 | 1.14 | 1.48 | 1.03 | 1.26 | 1.12 | 1.01 | 0.924 | 0.746
11 | COR-L 105 | 1.09 | 0.948 | 1.16 | 0.603 | 0.461 | 1.07 | 0.98 | 0.843 | 0.542 | 0.962 | 0.685 | 0.713 | 0.811 | 0.81 | 0.889 | 1.29 | 1.5 | 1.1 | 1.15 | 0.614
12 | NCI-H2347 | 1.18 | 0.97 | 0.933 | 0.612 | 0.488 | 1.02 | 0.903 | 0.879 | 0.947 | 0.972 | 0.947 | 0.726 | 0.793 | 0.761 | 0.821 | 0.93 | 0.971 | 0.81 | 0.592 | 0.803
13 | NCI-H2126 | 0.75 | 0.751 | 0.731 | 0.663 | 0.519 | 0.74 | 0.659 | 0.7 | 0.768 | 0.812 | 0.791 | 0.843 | 0.743 | 0.881 | 0.738 | 1.16 | 1.2 | 1.17 | 1.11 | 0.668
14 | NCI-H838 | 1.03 | 0.974 | 1.01 | 1.06 | 0.692 | 1.34 | 0.983 | 1.1 | 0.978 | 1.13 | 1.16 | 1.19 | 1.26 | 1.32 | 1.12 | 1.06 | 1.07 | 1.01 | 1.07 | 0.951
15 | A549 | 0.761 | 0.612 | 0.541 | 0.244 | 0.178 | 0.653 | 0.582 | 0.683 | 0.591 | 0.775 | 1.18 | 1.22 | 1.39 | 1.34 | 1.1 | 0.927 | 0.928 | 0.988 | 0.557 | 0.481
16 | NCI-H1623 | – | – | – | – | – | – | – | – | – | – | – | – | – | – | – | 0.977 | 0.867 | 0.983 | 0.39 | 0.562
17 | SK-LU-1 | 0.972 | 0.494 | 0.493 | 0.506 | 0.363 | 1.44 | – | 1.27 | 0.893 | 1.11 | 0.544 | 1 | 0.821 | 1.01 | 0.7 | 0.889 | 0.615 | 0.491 | 0.411 | 0.318
